One assay has as its target T1, EGFR mutant L858R/T790M (Homo sapiens, UniProt P00533, L858R/T790M).
T1 construct: truncated human JAK3, EGFR mutants such as del E746-A750; purchased Carna Biosciences
Kind of assay: Kinase inhibition assay, EGFR L858R/T790M.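 Further: truncated human enzyme preincubated two hours with compound, then one hour with one millimolar ATP and ULight-PolyGT peptide, Europium-labeled antibody detection, IC50.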 The format is biochemical. Conditions: read-out: EGFR mutants L858R/T790M.

For the next assay, the target named is T2, EGFR mutant T790M (Homo sapiens, UniProt P00533, T790M).
T2 construct: truncated human JAK3, EGFR mutants such as del E746-A750; purchased Carna Biosciences
T2 sequence (P00533 669-1210 T790M limits assumed): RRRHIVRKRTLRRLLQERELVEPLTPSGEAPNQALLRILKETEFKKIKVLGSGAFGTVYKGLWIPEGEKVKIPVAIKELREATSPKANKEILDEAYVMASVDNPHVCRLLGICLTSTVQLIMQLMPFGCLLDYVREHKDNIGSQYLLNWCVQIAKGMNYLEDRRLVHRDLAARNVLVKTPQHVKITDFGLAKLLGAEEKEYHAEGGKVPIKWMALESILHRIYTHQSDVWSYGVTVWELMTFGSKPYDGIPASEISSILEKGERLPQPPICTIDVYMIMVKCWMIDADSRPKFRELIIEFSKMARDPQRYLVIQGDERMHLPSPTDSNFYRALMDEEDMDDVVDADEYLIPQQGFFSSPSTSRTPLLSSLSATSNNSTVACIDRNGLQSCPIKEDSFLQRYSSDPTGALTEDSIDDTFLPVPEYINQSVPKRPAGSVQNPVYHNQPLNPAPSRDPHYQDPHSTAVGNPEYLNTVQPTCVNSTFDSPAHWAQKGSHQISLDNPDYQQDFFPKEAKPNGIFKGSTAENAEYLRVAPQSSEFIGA
Description: Kinase inhibition assay, EGFR mutant T790M.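 Further: truncated human EGFR mutant enzyme preincubated two hours with compound, then ATP plus ULight-PolyGT peptide for one hour, Europium-labeled antibody LANCE detection, IC50.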 Conditions: biochemical potency.

Assay [1] deals with T3, EGFR mutant Del19 (E746-A750) (Homo sapiens, UniProt P00533, DEL746-750).
T3 construct: truncated human JAK3, EGFR mutants such as del E746-A750; purchased Carna Biosciences
T3 sequence (P00533 with tags, fused parts or gaps DEL746-750 limits assumed): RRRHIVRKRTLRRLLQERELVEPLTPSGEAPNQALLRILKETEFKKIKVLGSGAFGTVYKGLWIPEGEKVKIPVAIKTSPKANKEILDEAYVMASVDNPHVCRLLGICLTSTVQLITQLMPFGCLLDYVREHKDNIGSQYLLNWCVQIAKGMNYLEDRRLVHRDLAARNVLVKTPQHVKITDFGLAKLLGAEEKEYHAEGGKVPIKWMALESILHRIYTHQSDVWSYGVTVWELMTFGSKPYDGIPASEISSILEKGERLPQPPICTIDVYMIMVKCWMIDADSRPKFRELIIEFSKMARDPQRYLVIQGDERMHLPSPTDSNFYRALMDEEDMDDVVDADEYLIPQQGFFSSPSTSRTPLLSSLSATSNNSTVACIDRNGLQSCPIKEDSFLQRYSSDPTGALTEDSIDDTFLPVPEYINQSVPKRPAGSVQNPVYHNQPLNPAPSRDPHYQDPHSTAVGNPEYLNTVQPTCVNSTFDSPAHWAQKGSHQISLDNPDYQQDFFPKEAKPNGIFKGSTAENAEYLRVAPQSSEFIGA
Description: Kinase inhibition assay, EGFR del E746-A750.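 Further: truncated human EGFR mutant kinase, two-hour preincubation with compound, then one-hour reaction with ATP and ULight-PolyGT peptide, LANCE Europium-antibody phosphorylation readout, IC50.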 The conditions noted are these: read-out: EGFR mutants Del19 (E746-A750). In kind it is biochemical.

In a further assay the target is T4, SYK (Homo sapiens, UniProt P43405).
T4 construct: Purified human, full-length SYK, KDR; purchased Carna Biosciences
Kind of assay: Kinase inhibition assay, SYK.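 Further: purified full-length human SYK pre-incubated 30 min with compound, then ULight-TK peptide phosphorylation for 1 h, detected with Europium-labeled antibody in Lance buffer.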 In kind it is biochemical. Conditions: biochemical potency.

Another assay addresses T5, EGFR mutant L858R (Homo sapiens, UniProt P00533, L858R).
T5 construct: truncated human JAK3, EGFR mutants such as del E746-A750; purchased Carna Biosciences
Description: Kinase inhibition assay, EGFR L858R.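 Further: truncated human EGFR L858R kinase with compound preincubation, ULight-PolyGT peptide phosphorylation read by Europium-antibody Lance detection, IC50.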 In kind it is biochemical. Conditions: read-out: EGFR mutants L858R.

The target in the next assay is T6, EGFR mutant Del19/T790M (Homo sapiens, UniProt P00533, DEL746-750/T790M).
T6 construct: truncated human JAK3, EGFR mutants such as del E746-A750; purchased Carna Biosciences
T6 sequence (P00533 with tags, fused parts or gaps DEL746-750/T790M limits assumed): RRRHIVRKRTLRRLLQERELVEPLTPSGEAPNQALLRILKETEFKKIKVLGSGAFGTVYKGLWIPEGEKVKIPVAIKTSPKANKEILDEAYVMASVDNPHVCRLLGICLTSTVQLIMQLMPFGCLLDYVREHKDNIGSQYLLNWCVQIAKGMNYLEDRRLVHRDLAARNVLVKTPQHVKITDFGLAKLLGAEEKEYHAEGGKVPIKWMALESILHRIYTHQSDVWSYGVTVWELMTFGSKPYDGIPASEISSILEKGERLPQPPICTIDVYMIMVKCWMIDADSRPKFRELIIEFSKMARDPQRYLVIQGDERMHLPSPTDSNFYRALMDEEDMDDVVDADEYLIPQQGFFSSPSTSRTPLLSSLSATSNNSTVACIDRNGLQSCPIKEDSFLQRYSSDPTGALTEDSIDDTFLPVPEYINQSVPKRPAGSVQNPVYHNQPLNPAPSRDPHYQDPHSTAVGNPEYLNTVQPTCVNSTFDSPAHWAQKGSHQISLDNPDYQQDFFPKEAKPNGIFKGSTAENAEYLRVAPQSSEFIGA
Description: Kinase inhibition assay, EGFR del E746-A750/T790M. The conditions noted are these: read-out: EGFR mutants Del19/T790M. In kind it is biochemical.

pIC50: −log10 of the molar value. Where only a bound is given, the exact number is not on record here.

T5 sequence (P00533 669-1210 L858R limits assumed): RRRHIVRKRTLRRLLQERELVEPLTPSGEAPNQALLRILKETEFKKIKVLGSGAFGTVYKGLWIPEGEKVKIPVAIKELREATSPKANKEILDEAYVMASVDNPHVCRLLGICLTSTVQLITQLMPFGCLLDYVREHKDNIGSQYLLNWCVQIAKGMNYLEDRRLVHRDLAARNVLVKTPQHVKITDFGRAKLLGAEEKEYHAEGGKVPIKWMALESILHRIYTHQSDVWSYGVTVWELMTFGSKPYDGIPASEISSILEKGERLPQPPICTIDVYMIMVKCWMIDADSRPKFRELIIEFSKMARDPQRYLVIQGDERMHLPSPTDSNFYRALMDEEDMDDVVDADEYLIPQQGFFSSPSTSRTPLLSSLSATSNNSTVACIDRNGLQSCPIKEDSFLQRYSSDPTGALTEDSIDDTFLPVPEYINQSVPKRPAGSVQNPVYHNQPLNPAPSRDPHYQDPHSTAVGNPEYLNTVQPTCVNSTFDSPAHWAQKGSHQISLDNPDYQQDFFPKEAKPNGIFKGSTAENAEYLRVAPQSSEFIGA
T1 sequence (P00533 669-1210 T790M/L858R limits assumed): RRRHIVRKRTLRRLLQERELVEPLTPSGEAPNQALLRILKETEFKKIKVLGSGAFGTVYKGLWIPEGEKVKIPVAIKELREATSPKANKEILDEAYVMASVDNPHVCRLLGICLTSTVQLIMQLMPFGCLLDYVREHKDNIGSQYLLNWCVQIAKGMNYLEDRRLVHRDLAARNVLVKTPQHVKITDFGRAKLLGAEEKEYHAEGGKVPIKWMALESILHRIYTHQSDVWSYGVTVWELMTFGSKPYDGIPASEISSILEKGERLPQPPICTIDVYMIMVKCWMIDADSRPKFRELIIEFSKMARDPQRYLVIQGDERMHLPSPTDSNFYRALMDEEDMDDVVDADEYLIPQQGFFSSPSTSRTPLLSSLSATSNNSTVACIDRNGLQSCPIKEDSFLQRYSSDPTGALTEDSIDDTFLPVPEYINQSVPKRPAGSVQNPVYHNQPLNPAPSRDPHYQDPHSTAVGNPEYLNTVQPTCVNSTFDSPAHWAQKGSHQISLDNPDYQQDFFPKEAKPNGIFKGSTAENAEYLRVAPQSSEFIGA

As to `C=CC(=O)Nc1cc(Nc2ncc(C)c(-n3cc(CN4C[C@H](O)[C@H](OC)C4)cn3)n2)c(OC)cc1N(C)CCN(C)C` [Compound 43, N-(2-((2-(dimethylamino)ethyl)(methyl)amino)-5-(4-(4-(((3S,4R)-3-hydroxy-4-methoxypyrrolidin-1-yl)methyl)-1H-pyrazol-1-yl)-5-methylpyrimidin-2-ylamino)-4-methoxyphenyl)acrylamide], the pIC50 on EGFR mutant L858R/T790M is above 7.70; against EGFR mutant T790M, above 7.70; in assay [1] it was above 7.70; at SYK, below 6.00; on EGFR mutant L858R, above 7.70; at EGFR mutant Del19/T790M, above 7.70.
`C=CC(=O)Nc1cc(Nc2nccc(-n3cc(CN(C)C)c(-c4ccccc4)n3)n2)c(OC)cc1N1CCN(C(C)=O)CC1` [Compound 135, N-(2-(4-acetylpiperazin-1-yl)-5-(4-(4-((dimethylamino)methyl)-3-phenyl-1H-pyrazol-1-yl)pyrimidin-2-ylamino)-4-methoxyphenyl)acrylamide]: the pIC50 was above 7.70 at EGFR mutant L858R/T790M; above 7.70 at EGFR mutant T790M; above 7.70 in assay [1]; below 6.00 against SYK; above 7.70 at EGFR mutant L858R; above 7.70 on EGFR mutant Del19/T790M.
In the case of `C=CC(=O)Nc1cc(Nc2nccc(-n3cc(CN4CCC4)c(-c4ccccc4)n3)n2)c(OC)cc1N1CCN(C(C)=O)CC1` [Compound 134, N-(2-(4-acetylpiperazin-1-yl)-5-(4-(4-(azetidin-1-ylmethyl)-3-phenyl-1H-pyrazol-1-yl)pyrimidin-2-ylamino)-4-methoxyphenyl)acrylamide], the pIC50 at EGFR mutant L858R/T790M is above 7.70; against EGFR mutant T790M, above 7.70; in assay [1], above 7.70; on SYK it was 6.00 to 6.70; at EGFR mutant L858R it was above 7.70; on EGFR mutant Del19/T790M it was above 7.70.
Regarding `C=CC(=O)Nc1cc(Nc2nccc(-n3cc(CN(C)C)c(C4CC4)n3)n2)c(OC)cc1N(C)C1COC1` [Compound 108, N-(5-(4-(3-cyclopropyl-4-((dimethylamino)methyl)-1H-pyrazol-1-yl)pyrimidin-2-ylamino)-4-methoxy-2-(methyl(oxetan-3-yl)amino)phenyl)acrylamide], the pIC50 was above 7.70 on EGFR mutant L858R/T790M; above 7.70 at EGFR mutant T790M; above 7.70 in assay [1]; 6.70 to 7.70 against SYK; above 7.70 on EGFR mutant L858R; above 7.70 on EGFR mutant Del19/T790M.
Turning to `C=CC(=O)Nc1cc(Nc2nccc(-n3cc(CN(C)C)c(-c4ccoc4)n3)n2)c(OC)cc1N1CCOCC1` [Compound 127, N-(5-(4-(4-((dimethylamino)methyl)-3-(furan-3-yl)-1H-pyrazol-1-yl)pyrimidin-2-ylamino)-4-methoxy-2-morpholinophenyl)acrylamide], the pIC50 on EGFR mutant L858R/T790M is above 7.70; against EGFR mutant T790M, above 7.70; in assay [1], above 7.70; on SYK, 6.00 to 6.70; on EGFR mutant L858R, above 7.70; on EGFR mutant Del19/T790M, above 7.70.
For the molecule `C=CC(=O)Nc1cc(Nc2ncc(C)c(-n3cc(CN4CC(O)C4)c(C)n3)n2)c(OC)cc1N1CCCCC1` [Compound 30, N-(5-(4-(4-((3-hydroxyazetidin-1-yl)methyl)-3-methyl-1H-pyrazol-1-yl)-5-methylpyrimidin-2-ylamino)-4-methoxy-2-(piperidin-1-yl)phenyl)acrylamide], the pIC50 on EGFR mutant L858R/T790M was above 7.70; against EGFR mutant T790M, above 7.70; in assay [1] it was above 7.70; at SYK, 6.70 to 7.70; on EGFR mutant L858R, above 7.70; at EGFR mutant Del19/T790M, above 7.70.
For the molecule `C=CC(=O)Nc1cc(Nc2nccc(-n3cc(CN4CC(OC)C4)c(C)n3)n2)c(OC)cc1N1CCOCC1` [Compound 44, N-(4-methoxy-5-(4-(4-((3-methoxyazetidin-1-yl)methyl)-3-methyl-1H-pyrazol-1-yl)pyrimidin-2-ylamino)-2-morpholinophenyl)acrylamide], the pIC50 was 6.70 to 7.70 on EGFR mutant L858R/T790M; 6.00 to 6.70 against EGFR mutant T790M; 6.70 to 7.70 in assay [1]; below 6.00 against SYK; 6.70 to 7.70 at EGFR mutant L858R; 6.70 to 7.70 on EGFR mutant Del19/T790M.
As for `C=CC(=O)Nc1cc(Nc2nccc(-n3cc(CN4CCC4)c(C4CC4)n3)n2)c(OC)cc1N(C)C1COC1` [Compound 109, N-(5-(4-(4-(azetidin-1-ylmethyl)-3-cyclopropyl-1H-pyrazol-1-yl)pyrimidin-2-ylamino)-4-methoxy-2-(methyl(oxetan-3-yl)amino)phenyl)acrylamide], the pIC50 at EGFR mutant L858R/T790M was above 7.70; against EGFR mutant T790M it was above 7.70; in assay [1] it was above 7.70; against SYK, below 6.00; at EGFR mutant L858R, above 7.70; on EGFR mutant Del19/T790M it was above 7.70.
For `C=CC(=O)Nc1cc(Nc2nccc(-n3cc(CN4CCC4)cn3)n2)c(OC)cc1N(C)C` [Compound 38, N-(5-(4-(4-(azetidin-1-ylmethyl)-1H-pyrazol-1-yl)pyrimidin-2-ylamino)-2-(dimethylamino)-4-methoxyphenyl)acrylamide], the pIC50 is above 7.70 on EGFR mutant L858R/T790M; above 7.70 against EGFR mutant T790M; above 7.70 in assay [1]; below 6.00 at SYK; above 7.70 at EGFR mutant L858R; 6.70 to 7.70 at EGFR mutant Del19/T790M.
For `C=CC(=O)Nc1cc(Nc2nccc(-n3cc(CN4CCC4)c(C(C)C)n3)n2)c(OC)cc1N1CCOCC1` [Compound 119, N-(5-(4-(4-(azetidin-1-ylmethyl)-3-isopropyl-1H-pyrazol-1-yl)pyrimidin-2-ylamino)-4-methoxy-2-morpholinophenyl)acrylamide], the pIC50 on EGFR mutant L858R/T790M was above 7.70; at EGFR mutant T790M it was above 7.70; in assay [1], above 7.70; at SYK, 6.00 to 6.70; at EGFR mutant L858R it was above 7.70; on EGFR mutant Del19/T790M, above 7.70.
Take `C=CC(=O)Nc1cc(Nc2nccc(-n3cc(CN4CC(O)C4)c(C)n3)n2)c(OC)cc1N1CCOCC1` [Compound 15, N-(5-(4-(4-((3-hydroxyazetidin-1-yl)methyl)-3-methyl-1H-pyrazol-1-yl)pyrimidin-2-ylamino)-4-methoxy-2-morpholinophenyl)acrylamide]: the pIC50 at EGFR mutant L858R/T790M was above 7.70; against EGFR mutant T790M, above 7.70; in assay [1], above 7.70; on SYK it was 6.00 to 6.70; at EGFR mutant L858R, above 7.70; on EGFR mutant Del19/T790M, above 7.70.
In the case of `C=CC(=O)Nc1cc(Nc2ncc(F)c(-n3cc(CN(C)C)c(-c4ccoc4)c3)n2)c(OC)cc1N1CCOCC1` [Compound 131, N-(5-(4-(3-((dimethylamino)methyl)-4-(furan-3-yl)-1H-pyrrol-1-yl)-5-fluoropyrimidin-2-ylamino)-4-methoxy-2-morpholinophenyl)acrylamide], the pIC50 is above 7.70 at EGFR mutant L858R/T790M; above 7.70 against EGFR mutant T790M; above 7.70 in assay [1]; 6.00 to 6.70 against SYK; above 7.70 at EGFR mutant L858R; above 7.70 at EGFR mutant Del19/T790M.
`C=CC(=O)Nc1cc(Nc2nccc(-n3cc(CN4C[C@H](O)[C@H](OC)C4)c(C4CC4)n3)n2)c(OC)cc1N1CCOCC1` [Compound 56, N-(5-(4-(3-cyclopropyl-4-(((3S,4R)-3-hydroxy-4-methoxypyrrolidin-1-yl)methyl)-1H-pyrazol-1-yl)pyrimidin-2-ylamino)-4-methoxy-2-morpholinophenyl)acrylamide]: the pIC50 was above 7.70 on EGFR mutant L858R/T790M; above 7.70 on EGFR mutant T790M; above 7.70 in assay [1]; below 6.00 against SYK; above 7.70 at EGFR mutant L858R; above 7.70 on EGFR mutant Del19/T790M.
Take `C=CC(=O)Nc1cc(Nc2nccc(-n3cc(CN4CCC4)c(C)n3)n2)c(OC)cc1C1=CCN(C)CC1` [Compound 59, N-(5-(4-(4-(azetidin-1-ylmethyl)-3-methyl-1H-pyrazol-1-yl)pyrimidin-2-ylamino)-4-methoxy-2-(1-methyl-1,2,3,6-tetrahydropyridin-4-yl)phenyl)acrylamide]: the pIC50 on EGFR mutant L858R/T790M is above 7.70; against EGFR mutant T790M it was above 7.70; in assay [1] it was above 7.70; at SYK, below 6.00; on EGFR mutant L858R it was above 7.70; on EGFR mutant Del19/T790M it was above 7.70.
`C=CC(=O)Nc1cc(Nc2nccc(-n3cc(CN4CCC4)c(-c4ccc(F)cc4)n3)n2)c(OC)cc1N1CCOCC1` [Compound 81, N-(5-(4-(4-(azetidin-1-ylmethyl)-3-(4-fluorophenyl)-1H-pyrazol-1-yl)pyrimidin-2-ylamino)-4-methoxy-2-morpholinophenyl)acrylamide]: the pIC50 at EGFR mutant L858R/T790M was 6.70 to 7.70; against EGFR mutant T790M, 6.00 to 6.70; in assay [1] it was 6.70 to 7.70; against SYK, below 6.00; at EGFR mutant L858R, 6.70 to 7.70; on EGFR mutant Del19/T790M it was 6.70 to 7.70.
For `C=CC(=O)Nc1cc(Nc2ncc(Cl)c(-n3cc(CN(C)C)c(C)n3)n2)c(OC)cc1N1CCOCC1` [Compound 52, N-(5-(5-chloro-4-(4-((dimethylamino)methyl)-3-methyl-1H-pyrazol-1-yl)pyrimidin-2-ylamino)-4-methoxy-2-morpholinophenyl)acrylamide], the pIC50 at EGFR mutant L858R/T790M is above 7.70; against EGFR mutant T790M it was above 7.70; in assay [1] it was above 7.70; at SYK it was 6.00 to 6.70; on EGFR mutant L858R, above 7.70; at EGFR mutant Del19/T790M, above 7.70.
Turning to `C=CC(=O)Nc1cc(Nc2nccc(-n3cc(CN4CCC4)c(C(C)C)n3)n2)c(OC)cc1N(C)C1COC1` [Compound 115], the pIC50 was above 7.70 at EGFR mutant L858R/T790M; above 7.70 against EGFR mutant T790M; above 7.70 in assay [1]; below 6.00 at SYK; above 7.70 on EGFR mutant L858R; above 7.70 on EGFR mutant Del19/T790M.

The record behind these values is USRE50528E1, “Compounds and compositions for modulating EGFR mutant kinase activities” (Yuhan Corporation, priority 2014, dated 2025).
